# Results from patent US20130191933A1, “METHODS OF TREATING PAIN AND MORPHINE TOLERANCE VIA MODULATION OF HEDGEHOG SIGNALLING PATHWAY” (BOARD OF REGENTS, THE UNIVERSITY OF TEXAS SYSTEM, priority 2010, published 2013).
# “Also recorded” adds a separate entry of the source. Like-named read-outs stand apart in the source and are kept apart here.
# Assays:
# Smo = Smo (Homo sapiens, UniProt Q99835); conditions: cited from earlier work
# [1] = test system: Gli1, Gli2, PtchI and other Shh-target genes; conditions: in a variety of cell types; cited from earlier work
# [2] = test system: rats with sciatic nerve ligation (neuropathic pain); assay: Neuropathic pain paradigm: sciatic nerve ligation, mechanical allodynia by Von Frey filaments; assay type: in vivo, Sprague-Dawley rats; conditions: rats two weeks after sciatic nerve ligation; daily intrathecal (lumbar puncture) drug; sub-clinical/low dose of morphine
# Method: Animals underwent sciatic nerve ligation as described (Chung et al.), and were then allowed to recover for two weeks. Allodynia was measured using mechanical withdrawal threshold (Von Frey hairs). […] Drugs were administered using lumbar puncture under anesthesia.
# Hh signaling modulates neuropathic pain, inflammatory pain, and opioid tolerance in rats. […] With regards to neuropathic pain, animals underwent sciatic nerve ligation as previously described in Chung et al., and were then allowed to recover for two weeks. Allodynia was measured by assessing the withdrawal threshold to a mechanical stimulus (Von Frey hairs). […] Drugs were administered using lumbar puncture under anesthesia.
# To test this, we examined the effects of pharmacologically blocking Smoothened activity in rodent pain models. Injection of Complete Freund's Adjuvant (CFA) into the rat hindpaw causes local inflammation, swelling, and decreased nociceptive thresholds, Stein, C., et al., A. Unilateral inflammation of the Hindpaw in rats as a Model of Prolonged Noxious Stimulation: Alterations in Behavior and Nociceptive Thresholds, Pharmacol Biochem Behav 31, […] (1988). FIG. 11 provides an inflammatory pain paradigm. Here, the hindpaws were injected with saline (sham, n=6), or CFA. […] Similarly, FIG. 10 provides a neuropathic pain paradigm. […] Mechanical allodynia was assessed using Von Frey filaments. […]
# [3] = test system: rats with complete Freund's adjuvant (CFA) injection (inflammatory pain); assay: Inflammatory pain paradigm: CFA hindpaw injection, thermal hyperalgesia by paw withdrawal latency (PWL); assay type: in vivo, Sprague-Dawley rats; conditions: rats after CFA hindpaw injection; for analgesic effect on thermal hyperalgesia (paw withdrawal latency, PWL): intrathecal (lumbar puncture) drug, Days 1-4; for development of tolerance to the analgesic effect (PWL): repeated intrathecal dosing
# Method: Animals underwent complete Freund's adjuvant (CFA) injection under anesthesia. Hyperalgesia was then measured using withdrawal latency of the paw to a thermal stimulus (PWL). […] Drugs were administered using lumbar puncture under anesthesia.
# Hyperalgesia was then measured using withdrawal latency of the paw to a thermal stimulus (PWL). […] Drugs were administered using lumbar puncture under anesthesia..
# To test this, we examined the effects of pharmacologically blocking Smoothened activity in rodent pain models. Injection of Complete Freund's Adjuvant (CFA) into the rat hindpaw causes local inflammation, swelling, and decreased nociceptive thresholds, Stein, C., et al., A. Unilateral inflammation of the Hindpaw in rats as a Model of Prolonged Noxious Stimulation: Alterations in Behavior and Nociceptive Thresholds, Pharmacol Biochem Behav 31, […] (1988). FIG. 11 provides an inflammatory pain paradigm. Here, the hindpaws were injected with saline (sham, n=6), or CFA. […] Similarly, FIG. 10 provides a neuropathic pain paradigm. […] Animals received daily intrathecal injections of vehicle (n=3) or drugs (CP, n=6; MS, n=6; or MS+CP, n=5). Mechanical allodynia was assessed using Von Frey filaments. […] All data are+/−S.E.M.
# Animals: Sprague-Dawley rats (male, […]) were housed three to a cage with water and food ad libitum and kept in temperature controlled rooms on a 12:12 hour light-dark cycle, with the dark cycle beginning at 7:00 pm. Animals were habituated to the testing environment for one week prior to testing and all tests were performed in the morning. All protocols were approved by our Institutional Animal Care and Use Committee.
# (§1) Drugs and Intermittent Lumbar Puncture: Rats were anesthetized with 2% isoflurane in oxygen. The lumbar region was shaved, prepared with Betadine solution and the intervertebral spaces widened by placing the animal on a plexiglas tube.
# Complete Freund's Adjuvant (CFA) […]: Under isoflurane […], the plantar surface of the left hindpaw was cleansed and 100 μl of CFA (Sigma, St. Louis, Mo.) injected using a 25-gauge needle. Animals recovered for 24 hours prior to analgesic testing.
# Paw Withdrawal Latency (PWL): PWL was measured by placing the animals in Plexiglas cages (9×22×25 cm.) on a modified Hargreaves Device, consisting of a glass surface maintained at 30° C. A stimulus lamp was focused on the tail with three measurements taken on different portions of the tail. An abrupt flick of the tail secondary to the thermal stimulus was sensed by photodiodes, and this served to terminate the stimulus and stop the timer. Animals were habituated to the device for one week prior to testing and for 30 min before each test session. The intensity of the thermal stimulus used in the TFL test was adjusted so baseline TFL was between 10-12 seconds to 20 second was used as an automatic cutoff time to avoid paw damage. The TFLs at the time points of 15, 30, and 45 minutes post-injection were measured and compared (n=6-8 per group).
# [4] = test system: morphine tolerance in rats; assay: Morphine tolerance assessed by tail flick latency (TFL); assay type: in vivo
# Method: (§2) Drugs were administered daily using lumbar puncture under anesthesia. Tolerance was then assessed using tail flick latency (TFL), or the withdrawal latency of the tail to a thermal stimulus. […] On Day 8, all animals received morphine alone.
# as §2, §1
# [5] = test system: Gli-mediated transcription; conditions: in a variety of cell types (Cur-61414: cell and tissues types; Robotnikinin: also synthetic human tissue); cited from earlier work
# Shh = Shh (Homo sapiens, UniProt Q15465); conditions: cited from earlier work
# Chain of Shh (Q15465 24-462, species assumed): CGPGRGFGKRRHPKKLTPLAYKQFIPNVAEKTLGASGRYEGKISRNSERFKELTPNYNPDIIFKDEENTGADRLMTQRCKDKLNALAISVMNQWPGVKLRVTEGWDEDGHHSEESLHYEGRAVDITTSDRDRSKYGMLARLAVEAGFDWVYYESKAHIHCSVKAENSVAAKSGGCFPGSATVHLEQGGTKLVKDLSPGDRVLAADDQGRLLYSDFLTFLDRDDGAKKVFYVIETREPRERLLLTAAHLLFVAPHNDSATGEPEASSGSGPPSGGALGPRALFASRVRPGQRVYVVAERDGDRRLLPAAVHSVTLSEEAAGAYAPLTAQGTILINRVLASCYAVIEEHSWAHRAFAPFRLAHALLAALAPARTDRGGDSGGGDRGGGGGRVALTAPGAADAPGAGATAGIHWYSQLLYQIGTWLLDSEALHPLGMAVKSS
# Chain of Smo (Q99835 28-787): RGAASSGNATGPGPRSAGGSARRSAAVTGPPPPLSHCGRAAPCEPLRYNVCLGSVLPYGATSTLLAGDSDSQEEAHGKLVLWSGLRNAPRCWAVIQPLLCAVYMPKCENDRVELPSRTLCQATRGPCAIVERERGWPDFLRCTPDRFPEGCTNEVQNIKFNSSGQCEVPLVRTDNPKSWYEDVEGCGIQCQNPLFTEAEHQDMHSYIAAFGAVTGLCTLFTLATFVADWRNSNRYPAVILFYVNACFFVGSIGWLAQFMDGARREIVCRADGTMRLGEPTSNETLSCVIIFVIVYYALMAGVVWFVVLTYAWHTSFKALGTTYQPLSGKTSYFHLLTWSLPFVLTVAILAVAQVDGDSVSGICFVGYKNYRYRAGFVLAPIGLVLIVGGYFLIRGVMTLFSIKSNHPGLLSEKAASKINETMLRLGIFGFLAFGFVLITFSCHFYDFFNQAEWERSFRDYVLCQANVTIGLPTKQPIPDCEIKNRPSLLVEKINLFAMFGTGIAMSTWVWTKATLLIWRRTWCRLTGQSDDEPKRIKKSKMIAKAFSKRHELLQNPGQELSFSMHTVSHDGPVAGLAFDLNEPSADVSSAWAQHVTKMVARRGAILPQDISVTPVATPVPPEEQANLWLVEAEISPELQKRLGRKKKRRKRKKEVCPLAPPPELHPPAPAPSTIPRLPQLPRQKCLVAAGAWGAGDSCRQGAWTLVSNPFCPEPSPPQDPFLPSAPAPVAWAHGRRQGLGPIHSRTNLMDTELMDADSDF
smiles,measurement,setting,value
CC1=C2C(=O)[C@H]3[C@@H](CC=C4C[C@@H](O)CC[C@@]43C)[C@@H]2CC[C@]12O[C@@H]1C[C@H](C)CN[C@H]1[C@H]2C [Jervine],targeting / binding of Smo,Smo,Targets Smo
same,targeting / binding of Smo,Smo; listed as jervine,target Smo
same,"transcription of Gli1, Gli2, PtchI and other Shh-target genes",[1],"Inhibits transcription of Gli1, Gli2, PtchI and other Shh-target"
CC1=C2C[C@H]3[C@@H](CC=C4C[C@@H](O)CC[C@@]43C)[C@@H]2CC[C@]12O[C@@H]1C[C@H](C)CN[C@H]1[C@H]2C [Cyclopamine],"analgesic effect on mechanical allodynia (mechanical withdrawal threshold, Von Frey)",[2],Neither morphine or cyclopamine had analgesic effects; also recorded: Neither a sub-clinical dose of morphine nor cyclopamine had analgesic effects; also recorded: neither cyclopamine nor a low dose of morphine had analgesic effects alone
same,"analgesic effect on thermal hyperalgesia (paw withdrawal latency, PWL)",[3],mild analgesic effect that plateaued
same,"analgesic effect on thermal hyperalgesia (paw withdrawal latency, PWL)",[3]; listed as cyclopamine,mild analgesic effect that plateaued; also recorded: had no analgesic effect
same,"reversal of morphine tolerance (tail flick latency, TFL)","[4]; daily lumbar puncture, cyclopamine added to morphine from start, Day 3 or Day 5",completely reversed tolerance within two days; also recorded: reverses the development of morphine tolerance
same,tolerance on Day 8 after cyclopamine was removed (TFL),[4]; on Day 8 all animals received morphine alone,animals were not tolerant on Day 8
same,targeting / binding of Smo,Smo,Targets Smo
same,targeting / binding of Smo,Smo; listed as cyclopamine,target Smo
CN1CC[C@]23c4c5ccc(O)c4O[C@H]2[C@@H](O)C=C[C@H]3[C@H]1C5 [morphine],"analgesic effect on mechanical allodynia (mechanical withdrawal threshold, Von Frey)",[2],Neither morphine or cyclopamine had analgesic effects; also recorded: Neither a sub-clinical dose of morphine nor cyclopamine had analgesic effects; also recorded: neither cyclopamine nor a low dose of morphine had analgesic effects alone
same,"analgesic effect on thermal hyperalgesia (paw withdrawal latency, PWL)",[3],caused analgesia
same,"analgesic effect on thermal hyperalgesia (paw withdrawal latency, PWL)",[3]; listed as Morphine,exhibited analgesic effects
same,development of tolerance to the analgesic effect (PWL),[3],tolerance developed with repeated dosing
same,development of tolerance to the analgesic effect (PWL),[3]; listed as Morphine,tolerance developed rapidly
O=C(C[C@@H]1C/C=C/CCC(=O)O[C@H](c2ccccc2)CNC1=O)NCc1ccc(Cl)cc1 [Robotnikinin],Gli-mediated transcription,[5],Represses Gli-medicated transcription in a variety of cell types and
same,direct binding to Shh,Shh,binds directly to Sonic Hedgehog; also recorded: Binds directly to Shh
